Test results from US20170227545A1, “REACTIVITY-BASED SCREENING FOR NATURAL PRODUCT DISCOVERY” (THE BOARD OF TRUSTEES OF THE UNIVERSITY OF ILLINOIS, priority 2014, published 2017).
≈ marks a conversion by molar mass, not a printed value. Read-outs that look alike come from different tables or passages of the source.

Legend:
Format in all cases: cell-based
[1] = tested on: Aspergillus niger; assay: Antifungal activity, microbroth dilution MIC
[2] = tested on: Bacillus anthracis strain Sterne; assay: microbe, parasite or virus in culture
[3] = tested on: Enterococcus faecalis U503 (vancomycin-resistant); assay: Antibiotic activity, microbroth dilution MIC
[4] = tested on: E. coli MC4100; assay: Antibiotic activity, microbroth dilution MIC; conditions: 37° C. 12 h
[5] = tested on: Gram-positive (Firmicutes) bacteria; conditions: several Gram-positive bacteria, result in words
[6] = tested on: Neisseria sicca ATCC 29256; assay: Antibiotic activity, microbroth dilution MIC
[7] = tested on: Saccharomyces cerevisiae; assay: Antifungal activity, microbroth dilution MIC
[8] = tested on: Staphylococcus aureus USA300 (methicillin-resistant); assay: Antibiotic activity, microbroth dilution MIC
[9] = tested on: fungal strains; assay: Growth inhibition, panel of fungal strains; conditions: result in words
[10] = tested on: Listeria monocytogenes strain 4b F2365; assay: Antibiotic activity, microbroth dilution MIC
[11] = tested on: Bacillus subtilis strain 168; assay: Antibiotic activity, microbroth dilution MIC
[12] = tested on: Talaromyces stipitatus; assay: Antifungal activity, microbroth dilution MIC
[13] = tested on: Gram-negative (Proteobacteria) organisms; conditions: all tested Gram-negatives, result in words
[14] = tested on: Pseudomonas putida KT2440; assay: Antibiotic activity, microbroth dilution MIC
[15] = tested on: Fusarium virguliforme; assay: Antifungal activity, microbroth dilution MIC
[16] = microbroth dilution, 30° C. 36 h
[17] = microbroth dilution, 37° C. 12 h

C=C1NC(=O)CNC(=O)[C@H](CCCCN)NC(=O)[C@@]2(C)NC(=O)/C(=C/C)NC(=O)[C@@H]3CSC(=N3)[C@H](CC(N)=O)NC(=O)c3ccc(nc3[C@@H](C)NC(=O)[C@@H]3CCCN3C1=O)-c1nc(cs1)C1=N[C@@H](CS1)C(=O)NC(=C)c1nc(cs1)-c1nc(cs1)C1=N[C@H](CS1)C(=O)N[C@H](C(=O)O)CS2 [cyclothiazomycin C]
MIC ([1]; 36 h): > 64 µg/mL | MIC ([2]; 12 h): 1 µg/mL (≈ 0.673 µM) | MIC ([3]; 12 h): 32 to 64 µg/mL (≈ 21.5 to 43 µM) | MIC ([4]; MC4100, Escherichia coli, read-out: MIC): > 64 µg/mL | growth inhibitory action toward Gram-positive (Firmicutes) bacteria [5]: exhibited growth inhibitory action | MIC ([6]; ATCC29256, 37° C. 12 h, read-out: MIC): > 64 µg/mL | MIC ([7]; 36 h): > 64 µg/mL | MIC ([8]; USA300, 12 h): 16 µg/mL (≈ 10.8 µM) | growth inhibitory action toward fungal strains [9]: none was observed | MIC ([10]; 4BF2365, 37° C. 12 h, read-out: MIC): 16 µg/mL (≈ 10.8 µM) | MIC ([11]; 168, 37° C. 12 h, read-out: MIC): 4 µg/mL (≈ 2.69 µM) | MIC ([12]; 36 h): > 64 µg/mL | activity against Gram-negative (Proteobacteria) organisms [13]: inactive | MIC ([14]; KT2440, 37° C. 12 h, read-out: MIC): > 64 µg/mL | MIC ([15]; 60 h): > 64 µg/mL

cyclothiazomycin B [reference compound]
MIC [1, 16]: >64 µg/mL | MIC [2, 17]: 1 µg/mL | MIC [3, 17]: 32 µg/mL | MIC ([4]; Escherichia coli): 64 µg/mL | MIC ([6]; 37° C. 12 h): >64 µg/mL | MIC [7, 16]: 64 µg/mL | MIC [8, 17]: 4 µg/mL | growth inhibitory action toward fungal strains [9]: little to no activity | MIC ([10]; 37° C. 12 h): 8 µg/mL | MIC ([11]; 37° C. 12 h): 2 µg/mL | MIC [12, 16]: 64 µg/mL | activity against Gram-negative (Proteobacteria) organisms [13]: little to no activity | MIC ([14]; 37° C. 12 h): >64 µg/mL | MIC ([15]; microbroth dilution, 30° C. 60 h): 64 µg/mL
